Tests used:
[1] = test system: IL-8 mRNA in Caco-2 cells; assay: IL-8 mRNA expression in Caco-2 monolayer cells (real-time PCR); type: cell-based, human; conditions: IFN-γ and TNF-α, FIG. 3B
Description: (§1) To the inner side culture medium of each well of the Caco-2 monolayer cells prepared by the aforementioned method was added a solution of HYA, HYB, KetoA, KetoB or KetoC (each 50 μM concentration, 500 μL), and the mixture was cultured for 24 hr. Then, IFN-γ was added to the outer side culture medium to the final concentration of 50 ng/mL and, after culture for 24 hr, the outer side medium was once removed. TNF-α was added to 50 ng/mL, the mixture was further cultured for 6 hr, and the below-mentioned intestinal tract barrier protection effect was evaluated. Also, a well free of test fatty acid and added with IFN-γ and TNF-α, and a well free of test fatty acid solution, IFN-γ and TNF-α (hereinafter to be also referred to as control) were prepared.
(§2) In the same manner as in the aforementioned Example, HYA was added and, 6 hr later, the Caco-2 monolayer cells were washed 3 times with PBS, and RNA was extracted with TRIzol (registered trade mark) (manufactured by Life Technologies) from the cells. RNA was reverse-transcribed using a high-capacity cDNA reverse transcription kit (Life Technologies) to give cDNA, and real-time PCR analysis was performed using KAPA SYBR FAST ABI PRISM qPCR kit (Kapa Biosystems). […]

[2] = test system: tight junction-related factors (MLCK, occludin) in Caco-2 monolayer cells; assay: Gene expression of tight junction-related factors in Caco-2 monolayer cells (real-time PCR); type: cell-based, human; conditions: IFN-γ and TNF-α, 6 hr, FIG. 4
Description: as §1, §2

[3] = test system: DSS-induced enteritis model mouse; assay: Dextran sodium sulfate (DSS)-induced enteritis model mouse: body weight, feces, large intestine length, histology; type: in vivo, BALB/c mice; conditions: 100 nmol orally every day for 10 days, 3.5% DSS for 5 days
Description: (§3) BALB/c mice (♀, 6-week-old) were purchased from Charles River Japan (Kanagawa, Japan), and all experiment plans were carried out in accordance with Hiroshima University, Animal Experiment Rule (No. C10-17). Acute colitis was induced by allowing free intake of 3.5% (w/v) DSS (molecular weight 36000-50000; MP Biomedicals, Aurora, Ohio, USA) for 5 days. To evaluate the effect of HYA and HYB on large intestine, 100 μL of a suspension of HYA or HYB (each 100 nmol) was orally administered to the mice. This administration was performed every day for total 10 days, for 5 days before DSS administration and 5 days after the start of the administration. The symptoms of colitis were evaluated every day based on a decrease in body weight, condition of feces and bleeding from the anus. After administration of DSS for 5 days, the mouse was sacrificed, and the length of the large intestine was measured. Thereafter, RNA was extracted from the large intestine tissue by using RNeasy Mini Kit (Qiagen, Maryland, Md., USA). Paraffin section (7 μm) of the large intestine tissue was produced, stained with hematoxylin-eosin, and histochemically evaluated. The extracted RNA was reverse-transcribed using a high-capacity cDNA reverse transcription kit (Life Technologies) to give cDNA, and real-time PCR analysis was performed using a KAPA SYBR FAST ABI PRISM qPCR kit (Kapa Biosystems). As the primer, oligoDNA pairs of nucleotide sequences were used: SEQ ID NOs: 5 and 6 for Claudin-1, SEQ ID NOs: 13 and 14 for Claudin-3, SEQ ID NOs: 15 and 16 for Claudin-4, SEQ ID NOs: 7 and 8 for ZO-1, SEQ ID NOs: 17 and 18 for ZO-2, SEQ ID NOs: 9 and 10 for Occludin, and SEQ ID NOs: 11 and 12 for MLCK.

[4] = test system: Caco-2 monolayer cells; assay: Intestinal tract barrier protection: transepithelial electrical resistance (TER) of Caco-2 monolayer cells stimulated with IFN-γ and TNF-α; type: cell-based, human; conditions: 50 μM test fatty acid 24 hr, then IFN-γ 50 ng/mL 24 hr, TNF-α 50 ng/mL, 0-6 hr; FIG. 2
Description: (§4) Caco-2 cells were placed in a 75 cm^2 tissue culture flask, and cultured up to about 80% confluence at 37° C. The cells were inoculated in a 12-well transwell (Transwell (registered trade mark)) cell culture chamber (permeable membrane; diameter 12 mm, pore size 0.4 μm) at a cell concentration of 2×10^5 cells/cm^2, and cultured at 37° C. for 14 days under 5% CO2 atmosphere to give Caco-2 monolayer cells. Furthermore, to verify whether or not tight junction is sufficiently formed, Caco-2 monolayer cells having transepithelial electrical resistance (TER) of about 900-1,000 Ωcm^2 or more were used for the assay. […]
(§5) To the inner side culture medium of each well of the Caco-2 monolayer cells prepared by the aforementioned method was added a solution of HYA, HYB, KetoA, KetoB or KetoC (each 50 μM concentration, 500 μL), and the mixture was cultured for 24 hr. […] TNF-α was added to 50 ng/mL, the mixture was further cultured for 6 hr, and the below-mentioned intestinal tract barrier protection effect was evaluated. […]
(§6) The intestinal tract barrier protection effect by test fatty acid solution was compared using transepithelial electrical resistance (TER) value (Ω·cm^2) and IL-8 production (pg/mL) as indices. With a resistance value measurement system (Millicell-ERS, Millipore) using an Ag/AgCl electrode, each TER value at 0, 1, 2, 3, 4, 5 and 6 hr after addition of TNF-α was measured. […]

[5] = test system: tight junction-related factors in large intestinal tissues; assay: Gene expression of tight junction-related factors in large intestinal tissues of DSS-induced enteritis model mouse (real-time PCR); type: in vivo, BALB/c mice; conditions: oral 100 nmol/day, FIG. 10
Description: as §3

[6] = test system: IL-8 production in Caco-2 cells; assay: IL-8 production in Caco-2 monolayer cells stimulated with IFN-γ and TNF-α (ELISA); type: cell-based, human; conditions: 50 μM, IFN-γ and TNF-α stimulation, outer side culture medium 6 hr after TNF-α addition, FIG. 3A
Description: as §4, §5, §6

| Compound | mRNA expression of IL-8 [1] | mRNA expression of MLCK [2] | mRNA expression of occludin [2] | weight loss ([3]; FIG. 5, 6) | stool score ([3]; FIG. 7) | length of large intestine ([3]; FIG. 8) | histochemical evaluation of the large intestine section (H&E staining) ([3]; FIG. 9) | TER relative value (Relative TER) [4] | mRNA expression of MLCK in large intestine tissue ([5]; compared to the DSS mouse) | mRNA expression of occludin in large intestine tissue ([5]; compared to the DSS mouse) | IL-8 production [6] | mRNA expression of all TJ-associated factors (claudin-1, -3, -4, occludin, MLCK, ZO-1, ZO-2) in large intestine tissue ([5]; DSS mouse) |
| --- | --- | --- | --- | --- | --- | --- | --- | --- | --- | --- | --- | --- |
| CCCCC/C=C\CC(O)CCCCCCCCC(=O)O (stereo not drawn) [HYA, 10-hydroxy-cis-12-octadecenoic acid] | suppressed such increase in the expression | suppression of an increase in the mRNA expression of MLCK | suppression of an increase in the mRNA expression of MLCK and a decrease in the mRNA expression of occludin | effective for the suppression of weight loss | recovery of stool score | protection of large intestine | showed recovery of tissue damage | showed suppression of a decrease in the TER relative value | significant recovery of the mRNA expression of occludin and MLCK | significant recovery of the mRNA expression of occludin and MLCK | suppression of IL-8 production was observed |  |
| CCCCCCCCC(O)CCCCCCCCC(=O)O (centres unmarked) [HYB, 10-hydroxyoctadecanoic acid] | suppressed such increase in the expression |  |  |  |  |  |  |  |  |  | suppression of IL-8 production was observed | did not show recovery from abnormal expression of all TJ-associated factors |

From patent US9539229B2, “Intestinal tract-protecting agent containing hydroxylated fatty acid” (KYOTO UNIVERSITY, priority 2013, dated 2017)
